For twelve molecules, IC50 results are on record in patent US8507510B2, “Sulfoximine-substituted pyrimidines as CDK- and/or VEGF inhibitors, their production and use as pharmaceutical agents” (Bayer Intellectual Property GmbH, priority 2003, dated 2013).

Each structure is given as a SMILES string.

By IC50 is commonly meant the concentration at which inhibition is half-maximal. A higher IC50 goes with lower potency.

Common to all, as to format: cell-based, human
Experiment [1] has as its system MCF7. Nature of the experiment: Proliferation assay, MCF7. Particulars: MCF7 cells, 4 days, crystal violet. An excerpt:
(§1) Cultivated human tumor cells (MCF7, […] human breast cancer cells, related to ATCC HTB22; NCI-H460, human non-small-cell lung cancer cells, ATCC HTB-177, HCT 116, human colon cancer cells, ATCC CCL-247; DU 145, hormone-independent human prostate cancer cells, ATCC HTB-81; MaTu-MDR, hormone-independent, multiple pharmaceutical agent-resistant human breast cancer cells, EPO-GmbH, Berlin) were flattened out at a density of about 5000 cells/measuring point, depending on the growth rate of the respective cells, in a 96-well multititer plate in 200 μl of the corresponding growth medium. After 24 hours, the cells of one plate (zero-point plate) were colored with crystal violet (see below), while the medium of the other plates was replaced by fresh culture medium (200 μl), to which the test substances were added in various concentrations (0 μm, as well as in the range of 0.01-30 μm; the final concentration of the solvent dimethyl sulfoxide was 0.5%). The cells were incubated for 4 days in the presence of test substances. The cell proliferation was determined by coloring the cells with crystal violet: the cells were fixed by adding 20 μl/measuring point of an 11% glutaric aldehyde solution for 15 minutes at room temperature. After three washing cycles of the fixed cells with water, the plates were dried at room temperature. The cells were colored by adding 100 μl/measuring point of a 0.1% crystal violet solution (the pH was set at 3 by adding acetic acid). After three washing cycles of the colored cells with water, the plates were dried at room temperature. The dye was dissolved by adding 100 μl/measuring point of a 10% acetic acid solution. The extinction was determined by photometry at a wavelength of 595 nm The change of cell growth, in percent, was calculated by normalization of the measured values to the extinction values of the zero-point plate (=0%) and the extinction of the untreated (0 μm) cells (=100%).

Experiment [2] relates to DU145. Briefly: Proliferation assay, DU145. The note with it: Homo sapiens, DU-145, 96 h, DU145 cells, 4 days, crystal violet.
Source text: as §1

Experiment [3] relates to H460. Briefly: Proliferation assay, H460. The note with it: H460 cells, 4 days, crystal violet.
Source text: as §1

Experiment [4] concerns MaTu-ADR. Briefly: Proliferation assay, MaTu-ADR. The note with it: Homo sapiens, 96 h, MaTu-ADR cells, 4 days, crystal violet.
Source text: as §1

Turning to `C[C@@H](O)[C@@H](C)Nc1nc(Nc2ccc(S(=N)(=O)CCO)cc2)ncc1Br` (mixture of isomers) [Example 1.18, (RS)-S-[4-({5-bromo-4-[(1R,2R)-(2-hydroxy-1-methyl-propyl)amino]pyrimidin-2-yl}amino)phenyl]-S-(2-hydroxyethyl)sulfoximide], the half-inhibitory concentration (IC50) in experiment [1] (Homo sapiens, MCF7, 96 h) is less than 100 nM.

The molecule `COc1cc(Nc2ncc(Br)c(N[C@H](C)[C@@H](C)O)n2)ccc1S(C)(=N)=O` (mixture of isomers) [Example 1.26, (RS)-S-[4-({5-bromo-4-[(1R,2R)-(2-hydroxy-1-methylpropyl)amino]pyrimidin-2-yl}amino)-2-methoxyphenyl]-S-methyl sulfoximide] had a half-maximal inhibitory concentration (IC50) in experiment [1] of 60 nM.

The molecule `CN=S(C)(=O)c1ccc(Nc2ncc(Br)c(N[C@H](C)[C@@H](C)O)n2)cc1` (mixture of isomers) [Example 1.29, (RS)-S-[4-({5-bromo-4-[(1R,2R)-(2-hydroxy-1-methylpropyl)amino]pyrimidin-2-yl}amino)phenyl]-N,S-dimethyl-sulfoximide] registered a half-inhibitory concentration (IC50) in experiment [1] of 170 nM.

Turning to `CN=S(C)(=O)c1ccc(Nc2ncc(Br)c(N[C@H](C)[C@@H](C)O)n2)cc1` (mixture of isomers) [Example 1.30, (RS)-S-[4-({5-bromo-4-[(1R,2R)-(2-hydroxy-1-methylpropyl)amino]pyrimidin-2-yl}amino)phenyl]-N,S-dimethyl-sulfoximide], the IC50 in experiment [1] turned out to be 170 nM.

`CCS(=N)(=O)c1ccc(Nc2ncc(Br)c(N[C@H](COC)[C@@H](C)O)n2)cc1` (mixture of isomers) [Example 1.48, (RS)—S-{4-[(5-bromo-4-{[(1R,2R)-2-hydroxy-1-(methoxymethyl)-propyl]amino}pyrimidin-2-yl)amino]phenyl}-S-ethyl sulfoximide] yielded a 50% inhibitory concentration (IC50) in experiment [1] (Homo sapiens, MCF7, 96 h) of 300 nM.

In experiment [1] (Homo sapiens, MCF7, 96 h), `CCS(=N)(=O)c1ccc(Nc2ncc(Br)c(N[C@H](C)[C@@H](C)O)n2)cc1` (mixture of isomers) [Example 1.51, (RS)—S-[4-({5-bromo-4-[(1R,2R)-(2-hydroxy-1-methylpropyl)amino]pyrimidin-2-yl}amino)phenyl]-S-ethyl sulfoximide] returned an IC50 of 80 nM.

In the case of `CCS(=N)(=O)c1ccc(Nc2ncc(Br)c(N[C@H](C)[C@@H](C)O)n2)cc1` (mixture of isomers) [Example 1.52, (RS)-S-[4-({5-bromo-4-[(1R,2R)-(2-hydroxy-1-methylpropyl)amino]pyrimidin-2-yl}amino)phenyl]-S-ethyl sulfoximide], the IC50 in experiment [1] is less than 100 nM.

`CCS(=N)(=O)c1ccc(Nc2ncc(Br)c(N[C@H](C)C(C)(C)O)n2)cc1` (mixture of isomers) [Example 1.54, (RS)—S-[4-({5-bromo-4-[(R)-(2-hydroxy-1,2-dimethylpropyl)amino]pyrimidin-2-yl}amino)phenyl]-S-ethyl sulfoximide]: the 50% inhibitory concentration (IC50) amounted to 110 nM in experiment [1], 190 nM in experiment [2] and 120 nM in experiment [3].

Turning to `C[C@@H](O)[C@@H](C)Nc1nc(Nc2ccc(S(=N)(=O)CCO)cc2)ncc1Br` (single isomer, unassigned) [Example 1.19], the IC50 in experiment [1] (Homo sapiens, MCF7, 96 h) was less than 100 nM.

For the molecule `COc1cc(Nc2ncc(Br)c(N[C@H](C)[C@@H](C)O)n2)ccc1S(C)(=N)=O` (single isomer, unassigned) [Example 1.27], the half-inhibitory concentration (IC50) in experiment [1] (Homo sapiens, MCF7, 96 h) was found to be 60 nM; in experiment [2], 130 nM; in experiment [3] (Homo sapiens, NCI-H460, 96 h), 20 nM.

In experiment [1] (Homo sapiens, MCF7, 96 h), `CCS(=N)(=O)c1ccc(Nc2ncc(Br)c(N[C@H](COC)[C@@H](C)O)n2)cc1` (single isomer, unassigned) [Example 1.50] had an IC50 of 1200 nM.

For the molecule `CCS(=N)(=O)c1ccc(Nc2ncc(Br)c(N[C@H](C)C(C)(C)O)n2)cc1` (single isomer, unassigned) [Example 1.56], the IC50 in experiment [1] (Homo sapiens, MCF7, 96 h) came out at 20 nM; in experiment [4], 50 nM; in experiment [3] (Homo sapiens, NCI-H460, 96 h), 100 nM.
